Data reported in PubChem BioAssay (NCI).
Where “and” joins values, the source holds several entries; their conditions need not be identical. Identical values can stand only once.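 Values below derive from 48-hour exposures of cells grown in 96-well plates, with endpoints linearly interpolated between the two concentrations bracketing the appropriate inhibition level. Here, GI50 denotes the concentration required for 50% inhibition of growth. Definition used: TGI = concentration required for complete inhibition of growth.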

Columns and labels:
Assay in all cases: NCI tumour cell line growth inhibition, 48 h; in the data active = GI50 below about 0.43 µM; inactive = the rest
CCRF-CEM leukemia = system: CCRF-CEM leukemia
HT29 colon = system: HT29 colon
HCT-15 colon = system: HCT-15 colon
MOLT-4 leukemia = system: MOLT-4 leukemia
SN12K1 renal = system: SN12K1 renal
HL-60(TB) leukemia = system: HL-60(TB) leukemia
IGROV1 ovarian = system: IGROV1 ovarian
A498 renal = system: A498 renal
SF-268 CNS = system: SF-268 CNS
SK-OV-3 ovarian = system: SK-OV-3 ovarian
OVCAR-3 ovarian = system: OVCAR-3 ovarian
NCI-H460 lung = system: NCI-H460 lung
NCI-H23 lung = system: NCI-H23 lung
SK-MEL-2 melanoma = system: SK-MEL-2 melanoma
DMS 114 small cell lung = system: DMS 114 small cell lung
RPMI-8226 leukemia = system: RPMI-8226 leukemia
RXF 393 renal = system: RXF 393 renal
HOP-92 NSCLC = system: HOP-92 NSCLC
UACC-257 melanoma = system: UACC-257 melanoma
HOP-18 NSCLC = system: HOP-18 NSCLC
KM12 colon = system: KM12 colon
HCT-116 colon = system: HCT-116 colon
XF 498 CNS = system: XF 498 CNS
A549 NSCLC = system: A549 NSCLC
EKVX NSCLC = system: EKVX NSCLC
OVCAR-5 ovarian = system: OVCAR-5 ovarian
K-562 leukemia = system: K-562 leukemia
UO-31 renal = system: UO-31 renal
SNB-75 CNS = system: SNB-75 CNS
DLD-1 colon = system: DLD-1 colon
P388/ADR leukemia = system: P388/ADR leukemia
OVCAR-4 ovarian = system: OVCAR-4 ovarian
COLO 205 colon = system: COLO 205 colon
LOX IMVI melanoma = system: LOX IMVI melanoma
NCI-H522 lung = system: NCI-H522 lung
SN12C renal = system: SN12C renal
MCF7 breast = system: MCF7 breast
SK-MEL-5 melanoma = system: SK-MEL-5 melanoma
MALME-3M melanoma = system: MALME-3M melanoma
HCC-2998 colon = system: HCC-2998 colon
SK-MEL-28 melanoma = system: SK-MEL-28 melanoma
SF-295 CNS = system: SF-295 CNS
CAKI-1 renal = system: CAKI-1 renal
UACC-62 melanoma = system: UACC-62 melanoma
P388 leukemia = system: P388 leukemia
SNB-78 CNS = system: SNB-78 CNS
NCI/ADR-RES ovarian = system: NCI/ADR-RES ovarian
DMS 273 small cell lung = system: DMS 273 small cell lung
OVCAR-8 ovarian = system: OVCAR-8 ovarian
M19-MEL melanoma = system: M19-MEL melanoma
SNB-19 CNS = system: SNB-19 CNS
U251 CNS = system: U251 CNS
SF-539 CNS = system: SF-539 CNS
SW-620 colon = system: SW-620 colon
NCI-H226 lung = system: NCI-H226 lung
RXF-631 renal = system: RXF-631 renal
ACHN renal = system: ACHN renal
KM20L2 colon = system: KM20L2 colon
LXFL 529 NSCLC = system: LXFL 529 NSCLC
MDA-N = system: MDA-N
DU-145 prostate = system: DU-145 prostate
HS 578T breast = system: HS 578T breast
SR leukemia = system: SR leukemia
786-0 renal = system: 786-0 renal
HOP-62 NSCLC = system: HOP-62 NSCLC
M14 melanoma = system: M14 melanoma

CO/C=C1\OC(=O)C=C1OC
> 31.6 µM: TGI (U251 CNS)
> 100 µM: TGI (CCRF-CEM leukemia) | TGI (HT29 colon) | TGI (HCT-15 colon) | TGI (MOLT-4 leukemia) | TGI (SN12K1 renal) | TGI (HL-60(TB) leukemia) | TGI (IGROV1 ovarian) | TGI (A498 renal) | TGI (SF-268 CNS) | TGI (SK-OV-3 ovarian) | TGI (OVCAR-3 ovarian) | TGI (NCI-H460 lung) | TGI (NCI-H23 lung) | TGI (SK-MEL-2 melanoma) | TGI (DMS 114 small cell lung) | TGI (RPMI-8226 leukemia) | TGI (RXF 393 renal) | TGI (HOP-92 NSCLC) | TGI (UACC-257 melanoma) | TGI (HOP-18 NSCLC) | TGI (KM12 colon) | TGI (HCT-116 colon) | TGI (XF 498 CNS) | TGI (A549 NSCLC) | TGI (EKVX NSCLC) | TGI (OVCAR-5 ovarian) | TGI (K-562 leukemia) | TGI (UO-31 renal) | TGI (SNB-75 CNS) | TGI (DLD-1 colon) | TGI (P388/ADR leukemia) | TGI (OVCAR-4 ovarian) | TGI (COLO 205 colon) | TGI (LOX IMVI melanoma) | TGI (NCI-H522 lung) | TGI (SN12C renal) | TGI (MCF7 breast) | TGI (SK-MEL-5 melanoma) | TGI (MALME-3M melanoma) | TGI (HCC-2998 colon) | TGI (SK-MEL-28 melanoma) | TGI (SF-295 CNS) | TGI (CAKI-1 renal) | TGI (UACC-62 melanoma) | TGI (P388 leukemia) | TGI (SNB-78 CNS) | TGI (NCI/ADR-RES ovarian) | TGI (DMS 273 small cell lung) | TGI (OVCAR-8 ovarian) | TGI (M19-MEL melanoma) | TGI (SNB-19 CNS) | TGI (SF-539 CNS) | TGI (SW-620 colon) | TGI (NCI-H226 lung)

CC[C@]1(O)C[C@H]2CN(CCc3c([nH]c4ccccc34)[C@@](C(=O)OC)(c3cc4c(cc3OC)N(C)[C@H]3[C@@](O)(C(=O)OC)[C@H](OC(C)=O)[C@]5(CC)C=CCN6CC[C@]43[C@@H]65)C2)C1
active: GI50 (ACHN renal) 52.7 pM | GI50 (RXF 393 renal) 0.00135 µM | GI50 (DU-145 prostate) 7.48 pM | GI50 (SK-MEL-28 melanoma) 7.41 pM | GI50 (SR leukemia) < 2.5 pM
0.931 µM: TGI (P388/ADR leukemia)
1.89 µM and 2.5 µM and 16.1 µM: TGI (UACC-257 melanoma)
0.0027 µM: TGI (SN12K1 renal)
0.139 µM: TGI (P388 leukemia)
25 pM: GI50 (KM20L2 colon)
0.123 µM: TGI (DMS 273 small cell lung)
1.51 µM: TGI (HOP-18 NSCLC)
0.025 µM and 0.0807 µM: TGI (SNB-75 CNS)
0.0333 µM: TGI (XF 498 CNS)
0.24 µM and 1.37 µM: TGI (HS 578T breast)
1.03 µM: TGI (RXF-631 renal)
1.7 µM: TGI (SNB-78 CNS)
1.06 µM: TGI (LXFL 529 NSCLC)
0.00025 µM and 0.000771 µM: TGI (MDA-N)
0.00183 µM: TGI (KM20L2 colon)
2.5 µM: TGI (DLD-1 colon)
0.00581 µM: TGI (DMS 114 small cell lung)
0.124 µM: TGI (HT29 colon)

CCCS(=O)c1nc(COC(=O)NC)c(COC(=O)NC)n1C (stereo not given)
> 100 µM: TGI (CCRF-CEM leukemia) | TGI (HT29 colon) | TGI (HCT-15 colon) | TGI (MOLT-4 leukemia) | TGI (SN12K1 renal) | TGI (RXF-631 renal) | TGI (HL-60(TB) leukemia) | TGI (IGROV1 ovarian) | TGI (786-0 renal) | TGI (A498 renal) | TGI (SF-268 CNS) | TGI (SK-OV-3 ovarian) | TGI (OVCAR-3 ovarian) | TGI (NCI-H460 lung) | TGI (NCI-H23 lung) | TGI (SK-MEL-2 melanoma) | TGI (DMS 114 small cell lung) | TGI (RPMI-8226 leukemia) | TGI (RXF 393 renal) | TGI (HOP-92 NSCLC) | TGI (UACC-257 melanoma) | TGI (KM20L2 colon) | TGI (HOP-18 NSCLC) | TGI (KM12 colon) | TGI (HCT-116 colon) | TGI (LXFL 529 NSCLC) | TGI (XF 498 CNS) | TGI (A549 NSCLC) | TGI (EKVX NSCLC) | TGI (OVCAR-5 ovarian) | TGI (K-562 leukemia) | TGI (UO-31 renal) | TGI (HOP-62 NSCLC) | TGI (SNB-75 CNS) | TGI (DLD-1 colon) | TGI (M14 melanoma) | TGI (P388/ADR leukemia) | TGI (OVCAR-4 ovarian) | TGI (COLO 205 colon) | TGI (LOX IMVI melanoma) | TGI (NCI-H522 lung) | TGI (SN12C renal) | TGI (MCF7 breast) | TGI (SK-MEL-5 melanoma) | TGI (MALME-3M melanoma) | TGI (HCC-2998 colon) | TGI (SK-MEL-28 melanoma) | TGI (SF-295 CNS) | TGI (CAKI-1 renal) | TGI (UACC-62 melanoma) | TGI (P388 leukemia) | TGI (SNB-78 CNS) | TGI (NCI/ADR-RES ovarian) | TGI (DMS 273 small cell lung) | TGI (OVCAR-8 ovarian) | TGI (M19-MEL melanoma) | TGI (SNB-19 CNS) | TGI (U251 CNS) | TGI (SF-539 CNS) | TGI (SR leukemia) | TGI (SW-620 colon) | TGI (NCI-H226 lung)
